In PMC5840146, “Structure-Activity Relationship Analysis of 3-Phenylcoumarin-Based Monoamine Oxidase B Inhibitors” (Frontiers in Chemistry, 2018):
Several values for one entry are separate records, joined by “and”; a condition that tells them apart may be missing. Identical values can stand only once.

Experiments:
MAO-A = biological target: T1, MAO-A (Homo sapiens, UniProt P21397); assay: continuous spectrophotometric MAO-A inhibition assay; type: biochemical; details: for MAO-A inhibition %: 100 µM, 1h
T1 construct: purchased Sigma-Aldrich
T1 sequence (P21397 1-527): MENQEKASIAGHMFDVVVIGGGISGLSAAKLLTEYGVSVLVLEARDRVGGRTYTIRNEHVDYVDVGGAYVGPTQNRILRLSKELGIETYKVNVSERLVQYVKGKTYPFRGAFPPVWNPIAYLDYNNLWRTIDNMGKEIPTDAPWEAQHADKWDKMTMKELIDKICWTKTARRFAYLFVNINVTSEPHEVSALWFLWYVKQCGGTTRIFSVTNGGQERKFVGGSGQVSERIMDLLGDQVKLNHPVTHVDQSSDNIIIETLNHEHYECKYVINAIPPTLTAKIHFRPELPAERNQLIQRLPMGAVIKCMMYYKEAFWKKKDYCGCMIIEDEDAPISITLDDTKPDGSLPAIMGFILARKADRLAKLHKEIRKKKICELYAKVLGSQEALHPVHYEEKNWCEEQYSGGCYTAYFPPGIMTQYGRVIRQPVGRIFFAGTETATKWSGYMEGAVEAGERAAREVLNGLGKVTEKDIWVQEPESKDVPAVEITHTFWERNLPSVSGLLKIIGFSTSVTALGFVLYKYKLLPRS
Procedure: (§1) Both monoamine oxidase A (MAO-A) and B (MAO-B) protein and the reagents for the chromogenic solution of vanillic acid (4-hydroxy-3-methoxylbenzoic acid, 97% purity), 4-aminoantipyrine (reagent grade), horseradish peroxidase and the substrate tyramine hydrochloride (minimum 99% purity) as well as the potassium phosphate buffer, which was prepared using potassium phosphate dibasic trihydrate (≥99% ReagentPlus™) and potassium phosphate monobasic (minimum 98% purity, molecular biology tested), were purchased from Sigma-Aldrich (St. Louis, MO, USA) for the spectrophotometric assay.
(§2) The protocol for continuous spectrophotometric assay (Holt et al., [1997]) was followed in the activity measurements. The assay was performed in 0.2 M potassium phosphate buffer pH 7.6 on 96-well plates (Nunc™ 96F microwell plate without a lid, Nunc A/S, Roskilde, DK) in 200 μl total volume. The chromogenic solution containing 1 mM vanillic acid, 500 μM 4-aminoantipyrine and 8 U/ml horseradish peroxidase in 0.2 M potassium phosphate buffer pH 7.6 was mixed anew for each measurement. 5 mM tyramine solution was used as the substrate. In order to determine the activity of both MAO-B and MAO-A, concentration series as duplicates were prepared. The protein was combined with the chromogenic solution and incubated 30 min at 37°C. The background signal was measured using multilabel reader (Victor^TM X4, 2030 Multilabel Reader, PerkinElmer, Waltham, MA, USA) at A490 before reaching the total 200 μl volume by adding 20 μl of tyramine to final concentration of 0.5 mM on the plate. As a result, the final concentration of the chromogenic solution on the plate was 250 μM vanillic acid, 125 μM 4-aminoantipyrine and 2 U/ml horseradish peroxide. After adding the substrate, the plates were measured 300 times every 15 s using 1 s exposure time. The device was set to 37°C for the duration of the experiment.
(§3) The experiment conditions should produce absorbance change of ~0.35 (Holt et al., [1997]). […] The same wide panel of coumarin derivatives was additionally used to analyze the MAO-A inhibition at 100 μM (Table 1, Supplementary Table S1).
(§4) The measured data was then fitted on a curve using non-linear regression with the equation for log[inhibitor] vs. response. The IC50 values were therefore determined based on the curve fit. The fitted curves are shown on –log scale in Supplementary Figures S1, S2.

MAO-B = biological target: T2, MAO-B (Homo sapiens, UniProt P27338); assay: continuous spectrophotometric MAO-B inhibition assay; type: biochemical; details: for MAO-B inhibition %: 10 µM, 2h; for LiPE: LiPE = pIC50 - QPlogPo/w, new analogs and pargyline; for IC50: dilution series 50 μM to 1 nM, duplicates, read-out: MAO-B inhibition IC50
T2 construct: purchased Sigma-Aldrich
T2 sequence (P27338 1-520): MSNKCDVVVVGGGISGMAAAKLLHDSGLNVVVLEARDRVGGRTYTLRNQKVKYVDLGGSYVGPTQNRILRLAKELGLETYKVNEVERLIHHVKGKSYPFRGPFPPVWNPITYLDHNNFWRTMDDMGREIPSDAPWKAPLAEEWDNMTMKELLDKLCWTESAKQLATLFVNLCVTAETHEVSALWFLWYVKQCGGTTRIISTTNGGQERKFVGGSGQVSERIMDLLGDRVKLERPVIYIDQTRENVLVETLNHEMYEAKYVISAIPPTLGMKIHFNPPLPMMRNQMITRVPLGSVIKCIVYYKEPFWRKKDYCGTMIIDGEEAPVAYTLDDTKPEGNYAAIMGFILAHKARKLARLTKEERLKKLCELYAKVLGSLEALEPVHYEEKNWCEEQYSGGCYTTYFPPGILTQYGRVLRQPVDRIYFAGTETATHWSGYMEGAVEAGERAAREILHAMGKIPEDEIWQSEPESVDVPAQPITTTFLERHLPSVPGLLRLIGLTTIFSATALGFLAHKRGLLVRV
Procedure: as §1, §2, §3, §4

ERα = biological target: T3, ERα (Homo sapiens, UniProt P03372); assay: PolarScreen ER Alpha Competitor Assay (fluorescence polarization); type: binding; details: 10 μM
T3 construct: purchased Life Technologies
T3 sequence (P03372 1-595): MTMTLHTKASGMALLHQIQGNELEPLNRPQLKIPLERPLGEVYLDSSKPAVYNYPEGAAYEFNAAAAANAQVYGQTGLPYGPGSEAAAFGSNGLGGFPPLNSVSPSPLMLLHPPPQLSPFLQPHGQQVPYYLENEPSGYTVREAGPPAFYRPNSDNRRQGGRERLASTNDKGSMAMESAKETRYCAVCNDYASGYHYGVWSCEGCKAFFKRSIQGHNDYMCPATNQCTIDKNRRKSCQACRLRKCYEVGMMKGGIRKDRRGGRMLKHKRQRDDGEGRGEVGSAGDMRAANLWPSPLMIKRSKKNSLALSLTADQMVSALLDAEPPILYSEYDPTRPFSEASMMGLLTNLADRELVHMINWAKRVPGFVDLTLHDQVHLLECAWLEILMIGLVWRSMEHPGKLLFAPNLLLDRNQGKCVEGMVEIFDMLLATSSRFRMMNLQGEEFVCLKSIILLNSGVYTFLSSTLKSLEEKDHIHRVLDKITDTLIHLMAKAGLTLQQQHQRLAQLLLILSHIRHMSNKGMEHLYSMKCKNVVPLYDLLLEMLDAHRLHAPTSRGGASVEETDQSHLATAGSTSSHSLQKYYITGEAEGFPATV
Procedure: The pIC50 values for the derivatives (Table 1, Supplementary Table S1) were measured with green PolarScreen™ ER Alpha Competitor Assay (Life Technologies, CA, The United States of America) kit, following the manufacturer protocol as previously described (Niinivehmas et al., [2016]). The final concentration of the compounds ranged from 0.0007 to 10 000 nM in the dilution series which were performed as duplicates. The molecules were combined with 25 nM ERα and 4.5 nM fluormone in the assay buffer and placed on black low volume 384-well assay plate with NBS surface (Corning, NY, The United States of America). After mixing the assay plate, it was incubated for 2 h in RT. The fluorescence polarization was measured using excitation wave length 485 and emission wave length 535 with bandwidths of 25/20 nm on a 2104 EnVision® Multilabel Plate Reader which had EnVision Workstation version 1.7 (PerkinElmer, MA, The United States of America).

recombinant human HSD1 = biological target: T4, recombinant human HSD1 (Homo sapiens, UniProt P14061); assay: HSD1 inhibition by HPLC with tritium labeled estrone/estradiol; type: biochemical; details: 1 μM
T4 construct: made in house; host or cells: Sf9 insect cells
T4 sequence (P14061 1-328): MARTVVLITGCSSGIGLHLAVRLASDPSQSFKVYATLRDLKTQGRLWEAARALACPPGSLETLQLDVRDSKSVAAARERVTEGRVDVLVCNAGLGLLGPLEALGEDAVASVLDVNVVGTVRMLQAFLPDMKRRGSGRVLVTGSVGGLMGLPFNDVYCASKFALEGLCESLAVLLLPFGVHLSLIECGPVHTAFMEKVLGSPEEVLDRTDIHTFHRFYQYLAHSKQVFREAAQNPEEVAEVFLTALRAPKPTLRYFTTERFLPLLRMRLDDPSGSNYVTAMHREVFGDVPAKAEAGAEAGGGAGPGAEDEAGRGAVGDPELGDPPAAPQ

human CYP1A2 = biological target: T5, human CYP1A2 (Homo sapiens, UniProt P05177); assay: CYP1A2 inhibition, 7-ethoxyresorufin fluorescence assay; type: biochemical
T5 construct: purchased Corning Inc
T5 sequence (P05177 1-516): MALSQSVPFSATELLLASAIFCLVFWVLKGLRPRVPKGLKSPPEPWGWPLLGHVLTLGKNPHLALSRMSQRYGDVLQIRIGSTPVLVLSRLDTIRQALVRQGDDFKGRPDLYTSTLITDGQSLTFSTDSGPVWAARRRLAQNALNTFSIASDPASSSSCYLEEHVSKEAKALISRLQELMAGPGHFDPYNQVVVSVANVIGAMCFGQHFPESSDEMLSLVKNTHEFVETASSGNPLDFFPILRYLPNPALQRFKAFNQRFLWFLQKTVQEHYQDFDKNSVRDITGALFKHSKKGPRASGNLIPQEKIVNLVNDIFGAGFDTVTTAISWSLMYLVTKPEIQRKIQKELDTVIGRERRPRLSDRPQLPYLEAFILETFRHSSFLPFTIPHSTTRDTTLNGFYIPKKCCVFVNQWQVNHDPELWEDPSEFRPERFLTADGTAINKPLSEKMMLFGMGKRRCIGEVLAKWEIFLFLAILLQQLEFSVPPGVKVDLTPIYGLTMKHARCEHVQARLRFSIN
Procedure: Inhibition of CYP1A2 activity was determined with commercial heterologously expressed human CYP1A2 enzyme (Corning Inc., Corning, NY, USA) as described earlier (Korhonen et al., [2005]). The metabolic activity was not in the scope of this particular study. The assay was adapted to the 96-well plate format. In each well, a 150 μL incubation volume contained 100 mM Tris-HCl buffer (pH 7.4), 4.2 mM MgCl2,1 μM 7-ethoxyresorufin, 0.5 pmol of cDNA expressed CYP1A2, […] inhibitor, and a NADPH-generating system. All inhibitors were dissolved in ethanol, and the final concentration of ethanol was 2% in all incubations. The reaction was initiated by adding the NADPH-regenerating system after a 10 min preincubation at 37°C, and after a 20 min incubation, the reaction was terminated by the addition of 110 μL of 80% acetonitrile/20% 0.5 M Tris base. The formed fluorescence was measured with a Victor2 plate counter (Perkin-Elmer Life Sciences Wallac, Turku, Finland) at 570 nm excitation and 616 nm emission.

SMILES | MAO-A inhibition % (MAO-A) [%] | MAO-B inhibition % (MAO-B) [%] | ER inhibition % (ERα) [%] | inhibition at 100 µM (MAO-A) [%] | inhibition at 1 µM (recombinant human HSD1) [%] | IC50 (human CYP1A2) [µM] | inhibition at 10 µM (MAO-B) [%] | LiPE (MAO-B) | IC50 (MAO-B) | HSD1 inhibition % (recombinant human HSD1) [%]
O=c1oc2cc(O)cc(O)c2cc1-c1ccc(O)cc1 [derivative 45] | 43.38 | 21.38 | 0.13 |  |  |  |  |  |  | 
CC(=O)Oc1ccc2cc(-c3ccc(N(C)C)cc3)c(=O)oc2c1 [derivative 19, 3-(4-(dimethylamino)phenyl)-2-oxo-2H-chromen-7-yl acetate] |  |  |  | 0 | 15 | 370 | 85.4 | 3.27 | 0.866 µM | 
CC(=O)Oc1ccc(-c2cc3cc(Cl)cc(Cl)c3oc2=O)cc1F [derivative 7, 4-(6,8-dichloro-2-oxo-2H-chromen-3-yl)-2-fluorophenyl acetate] |  |  |  | 0 | 0 | 46 | 91 | 2.69 | 0.888 µM | 
COc1ccc(-c2cc3ccc(OC)cc3oc2=O)cc1 [derivative 37] | 0.00 | 39.78 |  |  |  | 480 |  |  |  | 0.00
COc1ccc(-c2cc3ccc(OC(C)=O)cc3oc2=O)cc1 [derivative 13, 3-(4-methoxyphenyl)-2-oxo-2H-chromen-7-yl acetate] |  |  |  | 2.48 | 0 | 570 | 85.9 | 3.30 | 1.95 µM | 
CC(=O)Oc1ccc2cc(-c3ccc(OC(F)(F)F)cc3)c(=O)oc2c1 [derivative 3, 2-oxo-3-(4-(trifluoromethoxy)phenyl)-2H-chromen-7-yl acetate] |  |  |  | 22 | 0 | 280 | 100 | 3.52 | ~0.141 µM and 0.141 µM | 
CN(C)c1ccc(-c2cc3ccc(O)cc3oc2=O)cc1 [derivative 17, 3-(4-(dimethylamino)phenyl)-7-hydroxy-2H-chromen-2-one] |  |  |  | 4.74 | 5 | 35 | 90.1 | 3.62 | 0.384 µM | 
COc1ccc2oc(=O)c(-c3ccc(OC(F)(F)F)cc3)cc2c1 [derivative 4, 6-methoxy-3-(4-(trifluoromethoxy)phenyl)-2H-chromen-2-one] |  |  |  | 0 | 0 | 7 | 102 | 2.28 | 0.317 µM | 
